biological target: T1, human μ-opiate receptor (Homo sapiens, UniProt P35372); test: Affinity for the human μ-opiate receptor ([3H]-naloxone displacement, SPA, CHO-K1 membrane preparation); details: test substance 1 μmole/l; displacement of 1 nmole/l [3H]-naloxone; percentage inhibition of the specific binding
T1 construct: purchased Nen company, Zaventem, Belgium RB-HOM; host or cells: CHO-K1 cells (membrane preparation)
Method: Method for Determining the Affinity for the Human μ-Opiate Receptor
The receptor affinity for the human μ-opiate receptor is determined in a homogeneous batch in microtiter plates. For this purpose dilution series of the substances to be tested are incubated for 90 minutes at room temperature with a receptor membrane preparation (15-40 μg protein/250 μl incubation batch) of CHO-K1 cells, which express the human μ-opiate receptor (RB-HOM receptor membrane preparation from the Nen company, Zaventem, Belgium), in the presence of 1 nmole/l of the radioactive ligand [^3H]-naloxone (NET719, Nen company, Zaventem, Belgium) and 1 mg WGA-SPA beads (wheat germ agglutinin SPA beads from Amersham/Pharmacia, Freiburg, Germany) in a total volume of 250 μl. 50 mmole/l of Tris-HCl supplemented with 0.05% sodium azide and with 0.06% bovine serum albumin is used as incubation buffer. In order to determine the non-specific binding, 25 μmole/l of naloxone is additionally added. After the end of the 90 minutes' incubation time the microtiter plates are centrifuged for 20 minutes at 1000 g and the radioactivity is measured in a beta counter (Microbeta-Trilux, PerkinElmer Wallac, Freiburg, Germany). The percentage displacement of the radioactive ligand from its binding to the human μ-opiate receptor at a concentration of the test substances of 1 μmole/l is determined and is given as percentage inhibition of the specific binding.

T1 sequence (P35372 whole entry): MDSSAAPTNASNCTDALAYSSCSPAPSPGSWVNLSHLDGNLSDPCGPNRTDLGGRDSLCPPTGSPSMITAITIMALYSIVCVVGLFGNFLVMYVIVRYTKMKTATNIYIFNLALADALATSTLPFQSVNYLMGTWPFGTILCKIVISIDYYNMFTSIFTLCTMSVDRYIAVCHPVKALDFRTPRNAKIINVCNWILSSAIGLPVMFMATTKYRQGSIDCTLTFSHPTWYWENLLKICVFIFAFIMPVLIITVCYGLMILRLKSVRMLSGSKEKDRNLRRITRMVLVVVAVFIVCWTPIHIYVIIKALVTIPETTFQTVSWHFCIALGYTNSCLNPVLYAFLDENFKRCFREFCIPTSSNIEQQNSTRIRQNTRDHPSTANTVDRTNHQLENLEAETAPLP

First: CN(Cc1ccccc1)c1oc(C(C2CCC(C(c3ccc(Cl)cc3)N(C)C)CC2)N(C)c2ccccc2)nc1Cc1ccccc1 (centres unmarked) [compound 22, Benzyl-{4-benzyl-2-[{4-[(4-chlorophenyl)-dimethylaminomethyl]-cyclohexyl}-(methylphenylamine)-methyl]-oxazol-5-yl}-methylamine]
Second: CN(CCc1ccccc1)c1oc(C(C2CCC(C(c3ccc(F)cc3)N(C)C)CC2)N(C)c2ccccc2)nc1Cc1ccccc1 (centres unmarked) [compound 38, {4-benzyl-2-[{4-[dimethylamino-(4-fluorophenyl)-methyl]-cyclohexyl}-(methylphenylamine)-methyl]-oxazol-5-yl}-methylphenethylamine]
The “μ-opioid receptor, % inhibition [1 μM]” value of the first is higher: 64% for the first, 62% for the second.

same assay, conditions: test substance 1 μmole/l; displacement of 1 nmole/l [3H]-naloxone; percentage inhibition of the specific binding; read-out: μ-opioid receptor, % inhibition [1 μM]

First: CN(C)C(c1ccc(F)cc1)C1CCC(C(c2nc(Cc3ccccc3)c(N3CCCC3)o2)N2CCCCC2)CC1 (centres unmarked) [compound 17, [{4-[(4-benzyl-5-pyrrolidin-1-yl-oxazol-2-yl)-piperidin-1-yl-methyl]-cyclohexyl}-(4-fluorophenyl)-methyl]-dimethylamine]
Second: CC1CCCN(c2oc(C(C3CCC(C(c4ccc(F)cc4)N(C)C)CC3)N3CCCCC3)nc2Cc2ccccc2)C1 (centres unmarked) [compound 33, [(4-{[4-benzyl-5-(3-methylpiperidin-1-yl)-oxazol-2-yl]-piperidin-1-yl-methyl}-cyclohexyl)-(4-fluorophenyl)-methyl]-dimethylamine]
The inhibition at 1 µM of the first is higher: 76% for the first, 65% for the second.

Compared with `CN(C)C(c1ccc(F)cc1)C1CCC(C(c2nc(Cc3ccccc3)c(N3CCOCC3)o2)N(C)c2ccccc2)CC1` (centres unmarked) [compound 18, ((4-benzyl-5-morpholin-4-yl-oxazol-2-yl)-{4-[dimethylamino-(4-fluorophenyl)-methyl]-cyclohexyl}-methyl)-methylphenylamine], `CC1CCN(c2oc(C(C3CCC(C(c4ccc(F)cc4)N(C)C)CC3)N(C)c3ccccc3)nc2Cc2ccccc2)CC1` (centres unmarked) [compound 19, ([4-benzyl-5-(4-methylpiperidin-1-yl)-oxazol-2-yl]-{4-[dimethylamino-(4-fluorophenyl)-methyl]-cyclohexyl}-methyl)-methylphenylamine] is lower in inhibition at 1 µM: 65% for the first, 63% for the second.

Going from `CCN(CC)C(c1nc(Cc2ccccc2)c(N2CCC(C)CC2)o1)C1CCC(C(c2ccc(Cl)cc2)N(C)C)CC1` (centres unmarked) [compound 20, ([4-benzyl-5-(4-methylpiperidin-1-yl)-oxazol-2-yl]-{4-[(4-chlorophenyl)-dimethylaminomethyl]-cyclohexyl}-methyl)-diethylamine] to `CCN(CC)C(c1nc(Cc2ccccc2)c(N2CC(C)CC(C)C2)o1)C1CCC(C(c2ccc(Cl)cc2)N(C)C)CC1` (centres unmarked) [compound 41, ([4-benzyl-5-(3,5-dimethylpiperidin-1-yl)-oxazol-2-yl]-{4-[(4-chlorophenyl)-dimethylaminomethyl]-cyclohexyl}-methyl)-diethylamine], the inhibition at 1 µM rises from 63% to 64%.

Compared with `CCN(CC)C(c1nc(Cc2ccccc2)c(N(C)Cc2ccccc2)o1)C1CCC(C(c2ccc(Cl)cc2)N(C)C)CC1` (centres unmarked) [compound 21, Benzyl-[4-benzyl-2-({4-[(4-chlorophenyl)-dimethylaminomethyl]-cyclohexyl}-diethylaminomethyl)-oxazol-5-yl]-methylamine], `CCN(CC)C(c1nc(Cc2ccccc2)c(N(C)CCc2ccccc2)o1)C1CCC(C(c2ccc(F)cc2)N(C)C)CC1` (centres unmarked) [compound 34, [4-benzyl-2-(diethylamino-{4-[dimethylamino-(4-fluorophenyl)-methyl]-cyclohexyl}-methyl)-oxazol-5-yl]-methylphenethylamine] is higher in inhibition at 1 µM: 72% for the first, 84% for the second.

First: CN(C)C(c1cccs1)C1CCC(C(c2nc(Cc3ccccc3)c(N3CCC(Cc4ccccc4)CC3)o2)N2CCCCC2)CC1 (centres unmarked) [compound 23, [(4-{[4-benzyl-5-(4-benzyl-piperidin-1-yl)-oxazol-2-yl]-piperidin-1-yl-methyl}-cyclohexyl)-thiophen-2-yl-methyl]-dimethylamine]
Second: CN(C)C(c1cccs1)C1CCC(C(c2nc(Cc3ccccc3)c(N3CCN(c4ccccc4)CC3)o2)N2CCCCC2)CC1 (centres unmarked) [compound 26, [(4-{[4-benzyl-5-(4-phenylpiperazin-1-yl)-oxazol-2-yl]-piperidin-1-yl-methyl}-cyclohexyl)-thiophen-2-yl-methyl]-dimethylamine]
The inhibition at 1 µM of the first is lower: 70% for the first, 85% for the second.

Compared with `CC1CCN(c2oc(C(C3CCC(C(c4cccs4)N(C)C)CC3)N3CCCCC3)nc2Cc2ccccc2)CC1` (centres unmarked) [compound 24, [(4-{[4-benzyl-5-(4-methylpiperidin-1-yl)-oxazol-2-yl]-piperidin-1-yl-methyl}-cyclohexyl)-thiophen-2-yl-methyl]-dimethylamine], `CCN(CC)C(c1nc(Cc2ccccc2)c(N2CCC(C)CC2)o1)C1CCC(C(c2cccs2)N(C)C)CC1` (centres unmarked) [compound 29, {[4-benzyl-5-(4-methylpiperidin-1-yl)-oxazol-2-yl]-[4-(dimethylamino-thiophen-2-yl-methyl)-cyclohexyl]-methyl}-diethylamine] is higher in inhibition at 1 µM: 70% for the first, 95% for the second.

Going from `CN(Cc1ccccc1)c1oc(C(C2CCC(C(c3cccs3)N(C)C)CC2)N2CCCCC2)nc1Cc1ccccc1` (centres unmarked) [compound 25, Benzyl-(4-benzyl-2-{[4-(dimethylamino-thiophen-2-yl-methyl)-cyclohexyl]-piperidin-1-yl-methyl}-oxazol-5-yl)-methylamine] to `CCN(CC)C(c1nc(Cc2ccccc2)c(N(C)Cc2ccccc2)o1)C1CCC(C(c2cccs2)N(C)C)CC1` (centres unmarked) [compound 30, Benzyl-(4-benzyl-2-{diethylamino-[4-(dimethylaminothiophen-2-yl-methyl)-cyclohexyl]-methyl}-oxazol-5-yl)-methylamine], the inhibition at 1 µM rises from 80% to 92%.

Compared with `CCN(CC)C(c1nc(Cc2ccccc2)c(N2CCC(Cc3ccccc3)CC2)o1)C1CCC(C(c2cccs2)N(C)C)CC1` (centres unmarked) [compound 27, {[4-benzyl-5-(4-benzyl-piperidin-1-yl)-oxazol-2-yl]-[4-(dimethylamino-thiophen-2-yl-methyl)-cyclohexyl]-methyl}-diethylamine], `CCN(CC)C(c1nc(Cc2ccccc2)c(N2CCN(Cc3ccccc3)CC2)o1)C1CCC(C(c2cccs2)N(C)C)CC1` (centres unmarked) [compound 28, {[4-benzyl-5-(4-benzyl-piperazin-1-yl)-oxazol-2-yl]-[4-(dimethylamino-thiophen-2-yl-methyl)-cyclohexyl]-methyl}-diethylamine] is lower in inhibition at 1 µM: 78% for the first, 72% for the second.

Going from `CCN(CC)C(c1nc(Cc2ccccc2)c(N2CCN(c3ccccc3)CC2)o1)C1CCC(C(c2cccs2)N(C)C)CC1` (centres unmarked) [compound 31, {[4-benzyl-5-(4-phenylpiperazin-1-yl)-oxazol-2-yl]-[4-(dimethylamino-thiophen-2-yl-methyl)-cyclohexyl]-methyl}-diethylamine] to `CCN(CC)C(c1nc(Cc2ccccc2)c(N2CCCC(C)C2)o1)C1CCC(C(c2ccc(F)cc2)N(C)C)CC1` (centres unmarked) [compound 36, ([4-benzyl-5-(3-methylpiperidin-1-yl)-oxazol-2-yl]-{4-[dimethylamino-(4-fluorophenyl)-methyl]-cyclohexyl}-methyl)-diethylamine], the inhibition at 1 µM rises from 62% to 69%.

Going from `CN(C)C(c1cccs1)C1CCC(C(c2nc(Cc3ccccc3)c(N3CCC(Cc4ccccc4)CC3)o2)N2CCN(Cc3ccccc3)CC2)CC1` (centres unmarked) [compound 32, ({4-[[4-benzyl-5-(4-benzylpiperidin-1-yl)-oxazol-2-yl]-(4-benzylpiperazin-1-yl)-methyl]-cyclohexyl}-thiophen-2-yl-methyl)-dimethylamine] to `CC1CCCN(c2oc(C(C3CCC(C(c4ccc(Cl)cc4)N(C)C)CC3)N3CCCCC3)nc2Cc2ccccc2)C1` (centres unmarked) [compound 40, [(4-{[4-benzyl-5-(3-methylpiperidin-1-yl)-oxazol-2-yl]-piperidin-1-yl-methyl}-cyclohexyl)-(4-chlorophenyl)-methyl]-dimethylamine], the inhibition at 1 µM falls from 75% to 60%.

First: CCN(CC)c1oc(C(C2CCC(C(c3ccc(F)cc3)N(C)C)CC2)N(CC)CC)nc1Cc1ccccc1 (centres unmarked) [compound 35, [4-benzyl-2-(diethylamino-{4-[dimethylamino-(4-fluorophenyl)-methyl]-cyclohexyl}-methyl)-oxazol-5-yl]-diethylamine]
Second: CCN(CC)c1oc(C(C2CCC(C(c3ccc(Cl)cc3)N(C)C)CC2)N2CCCCC2)nc1Cc1ccccc1 (centres unmarked) [compound 39, [4-benzyl-2-({4-[(4-chlorophenyl)-dimethylaminomethyl]-cyclohexyl}-piperidin-1-yl-methyl)-oxazol-5-yl]-diethylamine]
The inhibition at 1 µM of the first is lower: 61% for the first, 75% for the second.

Compared with `CC1CC(C)CN(c2oc(C(C3CCC(C(c4ccc(F)cc4)N(C)C)CC3)N(C)c3ccccc3)nc2Cc2ccccc2)C1` (centres unmarked) [compound 37, ([4-benzyl-5-(3,5-dimethylpiperidin-1-yl)-oxazol-2-yl]-{4-[dimethylamino-(4-fluorophenyl)-methyl]-cyclohexyl}-methyl)-methylphenylamine], `CC1CC(C)CN(c2oc(C(C3CCC(C(c4ccc(Cl)cc4)N(C)C)CC3)N(C)c3ccccc3)nc2Cc2ccccc2)C1` (centres unmarked) [compound 42, ([4-benzyl-5-(3,5-dimethylpiperidin-1-yl)-oxazol-2-yl]-{4-[(4-chlorophenyl)-dimethylaminomethyl]-cyclohexyl}-methyl)-methylphenylamine] is higher in inhibition at 1 µM: 68% for the first, 79% for the second.

From patent publication US7608619B2, “Substituted oxazole compounds with analgesic activity” (Gruenenthal GmbH, priority 2005, dated 2009)
